Test results published in patent publication US9382209B2, “Polymorphic forms of ivabradine hydrochloride” (CADILA HEALTHCARE LIMITED, priority 2011, dated 2016).

How the values were obtained:
[1] = Storage stability of crystalline forms at 40° C./75% RH (6 months stability results); assay type: physicochemical; conditions: for Impurity Profile (i) Tetrahydro benzazepine / Impurity Profile (ii) (S)-methyl amino Compd. / Impurity Profile (iii) Benzocylco butane Compd. / Impurity Profile (iv) Dimer Impurity: BDL = Below Detection Limit
Description: In another general aspect, the storage stable crystalline Form-II of ivabradine hydrochloride may be characterized by at least 6 months stability results as outline in Table-III which is representative for one of the batch.
In another general aspect, the storage stable crystalline Form III of ivabradine hydrochloride may be characterized by at least 6 months stability results as outline in Table-IV which is representative for one of the batch.

[2] = Storage stability of crystalline forms at 25° C./60% RH; assay type: physicochemical; conditions: storage for 6 months at 25° C. and a relative humidity of 60%
[3] = 1 Month, 40° C. ± 2° C./75% ± 5% RH, listed as Form-III, hydrochloride
[4] = 2 Months, 40° C. ± 2° C./75% ± 5% RH, listed as Form-III, hydrochloride
[5] = 3 Months, 40° C. ± 2° C./75% ± 5% RH, listed as Form-III, hydrochloride
[6] = 1 Month, 40° C. ± 2° C./75% ± 5% RH
[7] = 1 Month, 40° C. ± 2° C./75% ± 5% RH, listed as Form-II, hydrochloride
[8] = 2 Months, 40° C. ± 2° C./75% ± 5% RH
[9] = 2 Months, 40° C. ± 2° C./75% ± 5% RH, listed as Form-II, hydrochloride
[10] = 3 Months, 40° C. ± 2° C./75% ± 5% RH
[11] = 3 Months, 40° C. ± 2° C./75% ± 5% RH, listed as Form-II, hydrochloride
[12] = 6 Months, 40° C. ± 2° C./75% ± 5% RH
[13] = Initial, specification Not more than 0.15

COc1cc2c(cc1OC)CC(=O)N(CCCN(C)C[C@H]1Cc3cc(OC)c(OC)cc31)CC2.Cl [Form III, 3-{3-{{[(7S)-3,4-dimethoxybicyclo[4.2.0]octa-1,3,5-trien-7-yl]methyl}(methyl)amino}-propyl}-7,8-dimethoxy-1,3,4,5-tetrahydro-2H-3-benzazepin-2-one hydrochloride]
Impurity Profile (v) Single Ind. [1, 3]: 0.04
Impurity Profile (vi) Total Imp. [1, 3]: 0.07
Polymorph [1, 3]: Form-III
Impurity Profile (v) Single Ind. [1, 4]: 0.03
Impurity Profile (vi) Total Imp. [1, 4]: 0.06
Polymorph [1, 4]: Form-III
Impurity Profile (v) Single Ind. [1, 5]: 0.04
Polymorph [1, 5]: Form-III
Polymorph ([1]; 6 Months, 40° C. ± 2° C./75% ± 5% RH, listed as Form-III, hydrochloride): Form-III
Polymorph ([1]; Initial, listed as Form-III, hydrochloride): Form-III

COc1cc2c(cc1OC)CC(=O)N(CCCN(C)C[C@H]1Cc3cc(OC)c(OC)cc31)CC2.Cl [Form II, 3-{3-{{[(7S)-3,4-dimethoxybicyclo[4.2.0]octa-1,3,5-trien-7-yl]methyl}(methyl)amino}-propyl}-7,8-dimethoxy-1,3,4,5-tetrahydro-2H-3-benzazepin-2-one hydrochloride]
Description [1, 6]: White
Water by KF (% w/w) [1, 6]: 2.0 % w/w
Impurity Profile (i) Tetrahydro benzazepine [1, 6]: BDL
Impurity Profile (ii) (S)-methyl amino Compd. [1, 6]: BDL
Impurity Profile (iii) Benzocylco butane Compd. [1, 6]: BDL
Impurity Profile (iv) Dimer Impurity [1, 6]: BDL
Impurity Profile (v) Single Ind. [1, 7]: 0.02
Impurity Profile (vi) Total Imp. [1, 7]: 0.05
Polymorph [1, 7]: Form-II
Description [1, 8]: White
Water by KF (% w/w) [1, 8]: 2.0 % w/w
Impurity Profile (i) Tetrahydro benzazepine [1, 8]: BDL
Impurity Profile (ii) (S)-methyl amino Compd. [1, 8]: BDL
Impurity Profile (iii) Benzocylco butane Compd. [1, 8]: BDL
Impurity Profile (iv) Dimer Impurity [1, 8]: BDL
Impurity Profile (v) Single Ind. [1, 9]: 0.02
Impurity Profile (vi) Total Imp. [1, 9]: 0.03
Polymorph [1, 9]: Form-II
Description [1, 10]: White
Impurity Profile (vi) Total Imp. [1, 10]: 0.08
Water by KF (% w/w) [1, 10]: 2.1 % w/w
Impurity Profile (i) Tetrahydro benzazepine [1, 10]: BDL
Impurity Profile (ii) (S)-methyl amino Compd. [1, 10]: BDL
Impurity Profile (iii) Benzocylco butane Compd. [1, 10]: BDL
Impurity Profile (iv) Dimer Impurity [1, 10]: BDL
Impurity Profile (v) Single Ind. [1, 11]: 0.03
Polymorph [1, 11]: Form-II
Description [1, 12]: White
Impurity Profile (v) Single Ind. [1, 12]: 0.03
Impurity Profile (vi) Total Imp. [1, 12]: 0.09
Water by KF (% w/w) [1, 12]: 2.0 % w/w
Impurity Profile (i) Tetrahydro benzazepine [1, 12]: BDL
Impurity Profile (ii) (S)-methyl amino Compd. [1, 12]: BDL
Impurity Profile (iii) Benzocylco butane Compd. [1, 12]: BDL
Impurity Profile (iv) Dimer Impurity [1, 12]: BDL
Polymorph ([1]; 6 Months, 40° C. ± 2° C./75% ± 5% RH, listed as Form-II, hydrochloride): Form-II
Impurity Profile (i) Tetrahydro benzazepine [1, 13]: BDL
Impurity Profile (ii) (S)-methyl amino Compd. [1, 13]: BDL
Impurity Profile (iii) Benzocylco butane Compd. [1, 13]: BDL
Impurity Profile (iv) Dimer Impurity [1, 13]: BDL
Polymorph ([1]; Initial, listed as Form-II, hydrochloride): Form-II
Impurity Profile (v) Single Ind. [1, 13]: 0.04
Impurity Profile (vi) Total Imp. [1, 13]: 0.09
Water by KF (% w/w) ([1]; Initial, specification Not more than 4.0%): 2.1 % w/w
Description ([1]; Initial, specification White to slightly yellow powder): White
quantity of crystalline β, δ, γ, or amorphous forms after storage ([1]; storage for 6 months at 40° C. and a relative humidity of 75%): no detectable quantity
quantity of crystalline β, δ, γ, or amorphous forms after storage [2]: no detectable quantity
